Results on 15 compounds are retold here after PubChem BioAssay (NCI).

What all share (assay): DTP human tumour cell line panel, 48 h
In test [1] the test system is SF-295 CNS.
Test [2] deals with HCT-116 colon.
Test [3] has as its system 786-0 renal.
The test system of test [4] is NCI-H522 lung.
Test [5] concerns HOP-62 NSCLC.
In test [6] the test system is SK-MEL-5 melanoma.
Test [7] relates to OVCAR-3 ovarian.
For test [8], the system named is LOX IMVI melanoma.
Test [9] relates to NCI/ADR-RES ovarian.

As usually defined, the GI50 is the concentration at which growth is held to half of that of the control. As usually defined, the TGI is the concentration at which net growth stops. High values mean lower sensitivity of the cells, low ones greater sensitivity of the cells.

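These data come from cells grown in 96-well plates and exposed to compound for 48 hours at five concentrations. GI50 marks 50% less growth. TGI is the concentration that stops growth completely.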 A value given as a limit tells only on which side of the number the result lay.

As for `CCSc1sc(-c2ccc(C)cc2)nc1[P+](c1ccccc1)(c1ccccc1)c1ccccc1`, the GI50 in test [1] was 0.235 µM; in test [2] it was 0.252 µM; in test [3], 0.375 µM; in test [4], 0.304 µM; in test [5] it was 0.316 µM; in test [6], 0.174 µM. Besides, the results for the concentration for 50% growth inhibition (GI50) in test [7] and in test [8] were 0.3 µM and 0.267 µM, respectively. For the same compound, the TGI worked out at 0.736 µM in test [1]; 1.17 µM in test [2]; 1.57 µM in test [3]; 1.23 µM in test [4]; 1.38 µM in [5]; 0.321 µM in [6]. Moreover, the TGI in test [7] came out at 1.18 µM; in test [8] it was 0.913 µM.
On to `Cc1cccc2c1NC(c1c(C)[nH]c3ccccc13)C2` (configuration not stated), for which the TGI in test [1], in [2], in [3], in [4], in [5] and in test [6] was greater than 100 µM in each case. Besides, the concentration for total growth inhibition (TGI) in [7] and in [8] was greater than 100 µM throughout.
Consider `O=C1/C=C(/c2ccc(O)cc2)[C@H](O)Cc2ccc(OC3OC(CO)C(O)C(O)C3O)cc2O1` (some centres not stated) (tested in a mixture with another compound), for which the TGI in [1], in test [2], in test [3], in [4], in [5] and in test [6] was greater than 100 µM throughout. In addition, the TGI in test [7] and in test [8] was greater than 100 µM each time.
For the compound `COC(=O)c1ccc2n[se]nc2c1`, the TGI in test [1], in test [2], in test [3], in test [4], in [5] and in test [6] was greater than 100 µM in each case. Further, the TGI in [8] was greater than 100 µM.
`O=C(N/C(=C\c1cc(Cl)ccc1Cl)c1nc2ccccc2[nH]1)c1ccccc1`: the TGI in test [1] was greater than 100 µM; in test [3], 35.7 µM; in test [4], greater than 100 µM; in test [6], 53.3 µM; in test [7], greater than 100 µM.
For `COc1cc2c3c(c1OC)C1(C=CC(=O)C=C1)CC3N(C(=O)OC(C)(C)C(Cl)(Cl)Cl)CC2` (configuration not stated), the TGI was determined as 28.9 µM in test [1]; 19 µM in test [2]; 28.8 µM in test [3]; 23.2 µM in test [4]; 31.9 µM in test [5]; 20.7 µM in test [6]. The TGI in test [7] was found to be 20.7 µM; in test [8], 26.1 µM.
`CC(C)(C)NC(=O)C12C3C4C1C1C2C3C41I` (configuration not stated): the TGI in test [1], in test [2], in [3], in [4] and in test [8] was greater than 100 µM in each case.
As for `COC1=C(C(=O)OC(C)(C)C)C23CCCCC2(C(C(=O)OC(C)(C)C)=C(OC)C3C(=O)OC(C)(C)C)C1C(=O)OC(C)(C)C` (configuration not stated), the TGI is greater than 100 µM in test [1]; greater than 100 µM in test [2]; greater than 100 µM in [3]; greater than 100 µM in test [4]; greater than 100 µM in test [5]; 36 µM in [6]. Moreover, the TGI in test [7] and in test [8] was greater than 100 µM each time.
For `Clc1cc(Cl)c2n[se]nc2c1`, the TGI in test [1], in [2], in [3], in [4], in test [5] and in [6] was greater than 100 µM throughout. This compound also yielded a TGI in test [8] greater than 100 µM.
For the compound `COc1cc(C=C2C(=O)OC(C)(C)OC2=O)cc(OC)c1OC`, the TGI in [1], in test [2], in test [3], in test [4], in [6] and in test [7] was greater than 100 µM throughout. Also, in test [8], the total growth inhibition concentration (TGI) is greater than 100 µM.
Consider `CC(C)CCC[C@@H](C)C1CCC2[C@@H]3CC=C4C[C@@H](OC(=O)CCC(=O)NCC[N+](C)(C)CCCS(=O)(=O)[O-])CC[C@]4(C)C3CC[C@@]21C` (some centres not stated), for which the TGI in test [1] turned out to be 31.6 µM; in test [2], 63.1 µM; in test [3], 67.9 µM; in [4], 73 µM; in [5], 33.9 µM; in test [7], 34.5 µM. The compound further came in with a TGI in [8] of 33.1 µM.
For the compound `CCCCC#Cc1c(I)n(C2OC(CO[Si](C)(C)C(C)(C)C)C3OC(C)(C)OC32)c(=O)[nH]c1=O` (configuration not stated), the GI50 in test [1] was 22 µM; in test [2] it was 5.52 µM; in [3] it was 15.4 µM; in test [4], 0.534 µM; in test [5], 20 µM; in test [9] it was 18.1 µM. In addition, the GI50 was 1.53 µM in [7] and 3.39 µM in [8]. The TGI was 51.5 µM in test [1]; 17.9 µM in test [2]; 29 µM in [3]; 1.95 µM in test [4]; 34.7 µM in test [5]; 49.7 µM in test [9]. Further, the values for the TGI in [7] and in [8] were 2.86 µM and greater than 100 µM, respectively.
With `CCCCCCCCOCC(O)COC` (configuration not stated), the TGI in test [1], in test [2], in test [3], in test [5], in test [6] and in test [7] was greater than 100 µM in each case. In test [8], this compound returned a TGI greater than 100 µM.
Regarding `Nc1ccc(Cl)cc1.Nc1ccc(Cl)cc1.Nc1ccc(Cl)cc1.O=C([O-])C(=O)[O-].O=C([O-])C(=O)[O-].[H+].[Ru+5]`, the GI50 in [1] is 0.127 µM; in [3], 1.44 µM; in [5], 0.691 µM; in test [7], 1.1 µM; in [8], greater than 100 µM. The TGI in test [2], in [3], in test [4], in [6], in [7] and in test [8] was greater than 100 µM each time.
With `COc1ccc(/C=N\N2C(=O)Cc3ccccc32)cc1`, the TGI in test [1], in test [2], in [3], in test [5], in test [6] and in test [7] was greater than 100 µM in each case. In test [8], this compound returned a TGI greater than 100 µM.
